Laboratory results as given in US20230002367A1, “BIFUNCTIONAL COMPOUNDS” (Hoffmann-La Roche Inc., priority 2019, published 2023).

Molecular target: T1, SMARCA2 (Homo sapiens, UniProt P51531)
T1 construct: endogenous in cells
Test: SMARCA2 HiBiT degradation assay (cellular)
Assay type: cell-based
Conditions: for Emax: A549, Emax = amount of residual protein remaining in the cell following compound treatment; for DC50: SMARCA2 HiBiT cells, luminescence readout, 11-point titration from 10 μM, 6 hours or 16 hours, read-out: HiBit A549 SMARCA2 IP

T1 sequence (P51531 whole entry): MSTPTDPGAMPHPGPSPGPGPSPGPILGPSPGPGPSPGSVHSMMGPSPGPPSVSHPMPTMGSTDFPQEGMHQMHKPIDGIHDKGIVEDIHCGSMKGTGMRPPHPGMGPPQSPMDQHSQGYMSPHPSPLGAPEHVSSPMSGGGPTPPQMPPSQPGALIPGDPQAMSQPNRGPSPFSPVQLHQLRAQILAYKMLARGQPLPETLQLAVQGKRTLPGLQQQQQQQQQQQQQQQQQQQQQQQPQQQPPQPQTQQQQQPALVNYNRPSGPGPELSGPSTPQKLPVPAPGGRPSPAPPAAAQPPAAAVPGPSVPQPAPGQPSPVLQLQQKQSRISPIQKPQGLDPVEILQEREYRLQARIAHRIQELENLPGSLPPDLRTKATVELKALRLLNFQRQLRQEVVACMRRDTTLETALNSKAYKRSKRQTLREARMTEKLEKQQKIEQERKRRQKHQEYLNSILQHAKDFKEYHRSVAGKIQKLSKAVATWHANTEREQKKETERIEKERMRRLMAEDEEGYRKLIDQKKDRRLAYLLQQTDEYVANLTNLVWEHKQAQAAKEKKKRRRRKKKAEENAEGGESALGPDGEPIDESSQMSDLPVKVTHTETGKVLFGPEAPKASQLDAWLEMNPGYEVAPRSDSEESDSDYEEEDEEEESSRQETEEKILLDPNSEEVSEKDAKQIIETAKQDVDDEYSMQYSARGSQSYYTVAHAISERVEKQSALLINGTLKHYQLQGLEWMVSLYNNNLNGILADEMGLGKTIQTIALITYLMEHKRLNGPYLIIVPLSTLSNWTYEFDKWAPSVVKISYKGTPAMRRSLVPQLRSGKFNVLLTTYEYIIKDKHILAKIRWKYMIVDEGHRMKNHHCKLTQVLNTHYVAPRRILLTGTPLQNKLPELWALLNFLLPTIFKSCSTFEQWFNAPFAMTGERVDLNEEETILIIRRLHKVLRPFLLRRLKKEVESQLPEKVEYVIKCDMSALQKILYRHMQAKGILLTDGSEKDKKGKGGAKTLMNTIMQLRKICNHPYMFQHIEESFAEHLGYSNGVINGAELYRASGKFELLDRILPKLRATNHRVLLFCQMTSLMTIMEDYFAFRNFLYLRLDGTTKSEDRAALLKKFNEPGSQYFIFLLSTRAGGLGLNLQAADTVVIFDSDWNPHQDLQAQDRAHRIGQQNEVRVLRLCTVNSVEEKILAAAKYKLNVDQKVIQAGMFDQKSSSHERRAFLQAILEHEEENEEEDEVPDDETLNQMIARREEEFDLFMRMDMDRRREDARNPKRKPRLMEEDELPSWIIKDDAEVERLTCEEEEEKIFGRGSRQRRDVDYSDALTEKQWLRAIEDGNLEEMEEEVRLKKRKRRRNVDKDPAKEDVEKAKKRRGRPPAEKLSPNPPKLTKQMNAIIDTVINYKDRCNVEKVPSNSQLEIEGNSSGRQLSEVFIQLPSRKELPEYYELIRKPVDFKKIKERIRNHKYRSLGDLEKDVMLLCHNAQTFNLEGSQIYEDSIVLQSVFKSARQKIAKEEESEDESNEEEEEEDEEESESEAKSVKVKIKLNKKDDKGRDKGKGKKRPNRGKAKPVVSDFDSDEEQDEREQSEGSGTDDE

SMILES | Emax | DC50
Cc1ncsc1-c1ccc([C@H](C)NC(=O)[C@@H]2C[C@@H](O)CN2C(=O)[C@@H](NC(=O)CCC(=O)N2CCOC3(CCN(c4cc(-c5ccccc5O)nnc4N)CC3)C2)C(C)(C)C)cc1 [Example 42, (2S,4R)-1-[(2S)-2-[[4-[9-[3-amino-6-(2-hydroxyphenyl)pyridazin-4-yl]-1-oxa-4,9-diazaspiro[5.5]undecan-4-yl]-4-oxo-butanoyl]amino]-3,3-dimethyl-butanoyl]-4-hydroxy-N-[(1S)-1-[4-(4-methylthiazol-5-yl)phenyl]ethyl]pyrrolidine-2-carboxamide] | 71% | 561 nM
Cc1ncsc1-c1ccc([C@H](C)NC(=O)[C@@H]2C[C@@H](O)CN2C(=O)[C@@H](NC(=O)CCCCCC(=O)N2CCOC3(CCN(c4cc(-c5ccccc5O)nnc4N)CC3)C2)C(C)(C)C)cc1 [Example 43, (2S,4R)-1-[(2S)-2-[[7-[9-[3-amino-6-(2-hydroxyphenyl)pyridazin-4-yl]-1-oxa-4,9-diazaspiro[5.5]undecan-4-yl]-7-oxo-heptanoyl]amino]-3,3-dimethyl-butanoyl]-4-hydroxy-N-[(1S)-1-[4-(4-methylthiazol-5-yl)phenyl]ethyl]pyrrolidine-2-carboxamide] | 23% | 749 nM
Cc1ncsc1-c1ccc([C@H](C)NC(=O)[C@@H]2C[C@@H](O)CN2C(=O)[C@@H](NC(=O)CCCCCCCCCCC(=O)N2CCOC3(CCN(c4cc(-c5ccccc5O)nnc4N)CC3)C2)C(C)(C)C)cc1 [Example 44, (2S,4R)-1-[(2S)-2-[[12-[9-[3-amino-6-(2-hydroxyphenyl)pyridazin-4-yl]-1-oxa-4,9-diazaspiro[5.5]undecan-4-yl]-12-oxo-dodecanoyl]amino]-3,3-dimethyl-butanoyl]-4-hydroxy-N-[(1S)-1-[4-(4-methylthiazol-5-yl)phenyl]ethyl]pyrrolidine-2-carboxamide] | 21% | 205 nM
Cc1ncsc1-c1ccc([C@H](C)NC(=O)[C@@H]2C[C@@H](O)CN2C(=O)[C@@H](NC(=O)CCCCCCCCCCCCC(=O)N2CCOC3(CCN(c4cc(-c5ccccc5O)nnc4N)CC3)C2)C(C)(C)C)cc1 [Example 45, (2S,4R)-1-[(2S)-2-[[14-[9-[3-amino-6-(2-hydroxyphenyl)pyridazin-4-yl]-1-oxa-4,9-diazaspiro[5.5]undecan-4-yl]-14-oxo-tetradecanoyl]amino]-3,3-dimethyl-butanoyl]-4-hydroxy-N-[(1S)-1-[4-(4-methylthiazol-5-yl)phenyl]ethyl]pyrrolidine-2-carboxamide] | 33% | 120 nM
Cc1ncsc1-c1ccc(CNC(=O)[C@@H]2C[C@@H](O)CN2C(=O)[C@@H](NC(=O)CCCCCCCCC(=O)N2CCN(CCOc3cccc(N4CCOC5(CCN(c6cc(-c7ccccc7O)nnc6N)CC5)C4)c3)CC2)C(C)(C)C)cc1 [Example 52, (2S,4R)-1-[(2S)-2-[[10-[4-[2-[3-[9-[3-amino-6-(2-hydroxyphenyl)pyridazin-4-yl]-1-oxa-4,9-diazaspiro[5.5]undecan-4-yl]phenoxy]ethyl]piperazin-1-yl]-10-oxo-decanoyl]amino]-3,3-dimethyl-butanoyl]-4-hydroxy-N-[[4-(4-methylthiazol-5-yl)phenyl]methyl]pyrrolidine-2-carboxamide] | 56% | 533 nM
Cc1ncsc1-c1ccc(CNC(=O)[C@@H]2C[C@@H](O)CN2C(=O)[C@@H](NC(=O)CCCCCCCCC(=O)N2CCN(CCOc3ccccc3N3C4CCC3CN(c3cc(-c5ccccc5O)nnc3N)C4)CC2)C(C)(C)C)cc1 [Example 55, (2S,4R)-1-[(2S)-2-[[10-[4-[2-[2-[3-[3-amino-6-(2-hydroxyphenyl)pyridazin-4-yl]-3,8-diazabicyclo[3.2.1]octan-8-yl]phenoxy]ethyl]piperazin-1-yl]-10-oxo-decanoyl]amino]-3,3-dimethyl-butanoyl]-4-hydroxy-N-[[4-(4-methylthiazol-5-yl)phenyl]methyl]pyrrolidine-2-carboxamide] | 27% | 2580 nM
Cc1ncsc1-c1ccc([C@H](C)NC(=O)[C@@H]2C[C@@H](O)CN2C(=O)[C@@H](NC(=O)CCCCCCCCCC(=O)N2CCN(CCOc3cccc(N4C5CCC4CN(c4cc(-c6ccccc6O)nnc4N)C5)c3)CC2)C(C)C)cc1 [Example 56, (2S,4R)-1-[(2S)-2-[[11-[4-[2-[3-[3-[3-amino-6-(2-hydroxyphenyl)pyridazin-4-yl]-3,8-diazabicyclo[3.2.1]octan-8-yl]phenoxy]ethyl]piperazin-1-yl]-11-oxo-undecanoyl]amino]-3-methyl-butanoyl]-4-hydroxy-N-[(1S)-1-[4-(4-methylthiazol-5-yl)phenyl]ethyl]pyrrolidine-2-carboxamide] | 20% | 91 nM
Cc1ncsc1-c1ccc([C@H](C)NC(=O)[C@@H]2C[C@@H](O)CN2C(=O)[C@@H](NC(=O)CCCCCC(=O)N2CCN(CCOc3cccc(CCOc4cc(-c5ccccc5O)nnc4N)c3)CC2)C(C)(C)C)cc1 [Example 57, (2S,4R)-1-[(2S)-2-[[7-[4-[2-[3-[2-[3-amino-6-(2-hydroxyphenyl)pyridazin-4-yl]oxyethyl]phenoxy]ethyl]piperazin-1-yl]-7-oxo-heptanoyl]amino]-3,3-dimethyl-butanoyl]-4-hydroxy-N-[(1S)-1-[4-(4-methylthiazol-5-yl)phenyl]ethyl]pyrrolidine-2-carboxamide] | 35% | 736 nM
Cc1ncsc1-c1ccc([C@H](C)NC(=O)[C@@H]2C[C@@H](O)CN2C(=O)[C@@H](NC(=O)CCCCCCCCCCCCC(=O)N2CCN(CCOc3cccc(CCOc4cc(-c5ccccc5O)nnc4N)c3)CC2)C(C)(C)C)cc1 [Example 60, (2S,4R)-1-[(2S)-2-[[14-[4-[2-[3-[2-[3-amino-6-(2-hydroxyphenyl)pyridazin-4-yl]oxyethyl]phenoxy]ethyl]piperazin-1-yl]-14-oxo-tetradecanoyl]amino]-3,3-dimethyl-butanoyl]-4-hydroxy-N-[(1S)-1-[4-(4-methylthiazol-5-yl)phenyl]ethyl]pyrrolidine-2-carboxamide] | 24% | 300 nM

Results, then the compound that gave them:

Emax | DC50 | SMILES
63% | 2150 nM | Cc1ncsc1-c1ccc(CNC(=O)[C@@H]2C[C@@H](O)CN2C(=O)[C@@H](NC(=O)CCCCCCCCC(=O)NCC(COc2cc(-c3ccccc3O)nnc2N)c2ccccc2)C(C)(C)C)cc1 (stereo partly drawn) [Example 50, N1-(3-((3-amino-6-(2-hydroxyphenyl)pyridazin-4-yl)oxy)-2-phenylpropyl)-N10-((S)-1-((2S,4R)-4-hydroxy-2-((4-(4-methylthiazol-5-yl)benzyl)carbamoyl)pyrrolidin-1-yl)-3,3-dimethyl-1-oxobutan-2-yl)decanediamide]
44% | 240 nM | Cc1ncsc1-c1ccc(CNC(=O)[C@@H]2C[C@@H](O)CN2C(=O)[C@@H](NC(=O)CCCCCCCCC(=O)N2CCN(Cc3cccc(C#Cc4cc(-c5ccccc5O)nnc4N)c3)CC2)C(C)(C)C)cc1 [Example 53, (2S,4R)-1-[(2S)-2-[[10-[4-[[3-[2-[3-amino-6-(2-hydroxyphenyl)pyridazin-4-yl]ethynyl]phenyl]methyl]piperazin-1-yl]-10-oxo-decanoyl]amino]-3,3-dimethyl-butanoyl]-4-hydroxy-N-[[4-(4-methylthiazol-5-yl)phenyl]methyl]pyrrolidine-2-carboxamide]
35% | 503 nM | Cc1ncsc1-c1ccc(CNC(=O)[C@@H]2C[C@@H](O)CN2C(=O)[C@@H](NC(=O)CCCCCCCCCCC(=O)N2CCN(Cc3cccc(C#Cc4cc(-c5ccccc5O)nnc4N)c3)CC2)C(C)(C)C)cc1 [Example 54, (2S,4R)-1-[(2S)-2-[[12-[4-[[3-[2-[3-amino-6-(2-hydroxyphenyl)pyridazin-4-yl]ethynyl]phenyl]methyl]piperazin-1-yl]-12-oxo-dodecanoyl]amino]-3,3-dimethyl-butanoyl]-4-hydroxy-N-[[4-(4-methylthiazol-5-yl)phenyl]methyl]pyrrolidine-2-carboxamide]
22% | 197 nM | Cc1ncsc1-c1ccc([C@H](C)NC(=O)[C@@H]2C[C@@H](O)CN2C(=O)[C@@H](NC(=O)CCCCCCCCC(=O)N2CCN(CCOc3cccc(CCOc4cc(-c5ccccc5O)nnc4N)c3)CC2)C(C)(C)C)cc1 [Example 58, (2S,4R)-1-[(2S)-2-[[10-[4-[2-[3-[2-[3-amino-6-(2-hydroxyphenyl)pyridazin-4-yl]oxyethyl]phenoxy]ethyl]piperazin-1-yl]-10-oxo-decanoyl]amino]-3,3-dimethyl-butanoyl]-4-hydroxy-N-[(1S)-1-[4-(4-methylthiazol-5-yl)phenyl]ethyl]pyrrolidine-2-carboxamide]
23% | 305 nM | Cc1ncsc1-c1ccc([C@H](C)NC(=O)[C@@H]2C[C@@H](O)CN2C(=O)[C@@H](NC(=O)CCCCCCCCCCC(=O)N2CCN(CCOc3cccc(CCOc4cc(-c5ccccc5O)nnc4N)c3)CC2)C(C)(C)C)cc1 [Example 59, (2S,4R)-1-[(2S)-2-[[12-[4-[2-[3-[2-[3-amino-6-(2-hydroxyphenyl)pyridazin-4-yl]oxyethyl]phenoxy]ethyl]piperazin-1-yl]-12-oxo-dodecanoyl]amino]-3,3-dimethyl-butanoyl]-4-hydroxy-N-[(1S)-1-[4-(4-methylthiazol-5-yl)phenyl]ethyl]pyrrolidine-2-carboxamide]
59% | 519 nM | Cc1ncsc1-c1ccc(CNC(=O)[C@@H]2C[C@@H](O)CN2C(=O)[C@@H](NC(=O)CCCCCC(=O)N2CCN(Cc3cccc(C#Cc4cc(-c5ccccc5O)nnc4N)c3)CC2)C(C)(C)C)cc1 [Example 61, (2S,4R)-1-[(2S)-2-[[7-[4-[[3-[2-[3-amino-6-(2-hydroxyphenyl)pyridazin-4-yl]ethynyl]phenyl]methyl]piperazin-1-yl]-7-oxo-heptanoyl]amino]-3,3-dimethyl-butanoyl]-4-hydroxy-N-[[4-(4-methylthiazol-5-yl)phenyl]methyl]pyrrolidine-2-carboxamide]
